# Reference: patent publication US20070148094A1, “Polymeric imaging agents and medical imaging methods” (priority 2005, published 2007)
# Test system: rat mammary tumor line (MAT-B-III)
# Assay: Optical (NIR fluorescence) imaging of tumor to background ratio in tumor rat model
# Format: in vivo
# Source text: For optical imaging the signal to ratio background ratio is defined as the mean fluorescence intensity (target tissue)/mean fluorescence intensity (background tissue). For optical imaging methods, target to background ratio may be determined using computer-controlled (LabVIEW) camera acquisition via custom LabVIEW software. […] A region of interest (ROI) maybe defined in both the tumor area and the background tissue area. Fluorescence emission from the ROI may be received at a near-infrared sensitive 12-bit CCD camera, in which the intensities range from 0-4095.
# Optical Imaging Using Tumor Rat Model. Step 1. Introduction of Tumor Cells into Animal. Intra-mammary gland tumor injection is a survival surgery. All procedures are performed with the animal lying on a circulating water pad. With the anesthetized rat lying on its back, the sterile prepped ventral abdominal skin is picked up, just above the left groin (inguinal) area and a small incision is made with scissors being careful to avoid the underlying peritonium. The fourth mammary gland is easily visible, lying on the dorsal surface of the skin directly on top of a junction point for the mammary artery and vein. Using a 1 cc syringe, 10^6 cells (0.1 ml) were injected directly into the gland. Only one mammary gland per rat was inoculated with tumor cells. The skin wound was closed with surgical staples. Surgical staples were removed 3 days after insertion.
# Animals are treated with test agents and imaged 7 days after tumor injections. Test agents are administered via a tail vein injection (100-500 μl). For MR studies, animals received a pre-injection scan, followed by post-injection scans. Images were obtained post injection at approximately 4-minute intervals following injection for up to 30-40 minutes. In some experiments images were again taken at 24 hours after injection. For optical studies, animals were imaged at 0.5, 6, 12, and 24 hours.
# Step 2. Agent Administration. After approximately 8 days following tumor cell implantation (the tumor size reached about 5-10 mm diameter) one of several imaging agents listed in Table 2 was administered to the animal at the corresponding dosage indicated in Table 2.
# Step 3. Surgical Resection. Surgical tumor resection is a non-survival surgery. Tumors were resecteded when they reached a diameter in the range of 5-10 mm in diameter. With the anesthetized rat lying on its back, the ventral abdominal skin is picked up, just above the left groin (inguinal) area and a small incision is made (at or near the site of tumor inoculation) with scissors being careful to avoid the underlying peritonium. The tumor, growing in the mammary gland, stays contained in this tissue and is easily removed. The tumor was held with a pair of forceps and using a scalpel is removed from the surrounding connective tissue. After the tumor was removed, a midline incision, through the peritoneum was made, other organs were observed and imaged, and sampled for histological and biodistribution studies.
# Step 4. Data Capture. Images were captured for later evaluation of the relative intensity of fluorescence in the kidney, liver, bladder, muscle etc. Samples of blood and urine were acquired and stored, the animal was sacrificed, and the clearance organs were removed from animal and frozen in a slurry of dry ice and 2-methylbutane. The tissues were then placed in an embedding medium (OCT, […]) and frozen at −80° C. Blood and urine samples were analyzed for concentration of agent at this time point, and for evidence of metabolism of the administered agent.
# Statistical Analysis of Optical Imagine Results. To reduce the large number of variables in this problem and one polymer length (˜400 residues) was chosen at a high percentage conjugation (˜96%) for the MR imaging moiety (Gd-DTPA) with one dye per molecule. In one set of experiments, a tetra-sulfonated dye (Cy5.5-NHS-Ester) was then compared with a bis-sulfonated dye (Cy5-NHS-Ester). […]
smiles,measurement,setting,value
"CC[N+]1=C(C=CC=CC=C2N(CCCCCC(=O)O)c3ccc(S(=O)(=O)[O-])cc3C2(C)C)C(C)(C)c2cc(S(=O)(=O)[O-])ccc21.[Na+] [Cy5 free dye, 2-[5-[1-(5-carboxypentyl)-1,3-dihydro-3,3-dimethyl-5-sulfo-2H-indol-2-ylidene]-penta-1,3-dienyl]-3,3-dimethyl-5-sulfo-1-ethyl-3H-indolium, inner salt, sodium salt]",Average of Tumor/Bkgnd,"dose printed as 'blank', 6 hours post injection",1.17
same,Average of Tumor/Bkgnd,"dose printed as 'blank', 12 hours post injection",1.18
same,Average of Tumor/Bkgnd,"dose printed as 'blank', 24 hours post injection",1.17
same,Average of Tumor/Bkgnd,"dose printed as 'blank', Total over time points",1.17
same,Average of Tumor/Bkgnd,"vector subtotal over all doses, 6 hours post injection",1.17
same,Average of Tumor/Bkgnd,"vector subtotal over all doses, 12 hours post injection",1.18
same,Average of Tumor/Bkgnd,"vector subtotal over all doses, 24 hours post injection",1.17
same,Average of Tumor/Bkgnd,"vector subtotal over all doses, Total over time points",1.17
